What was measured:
MBL-MASP complex = assay: Effect of inhibitor on serum MASP activity (captured MBL-MASP complex, pro-urokinase detection); type: biochemical; conditions: 0-1 μM BMpg vs DMSO control; human serum captured on mannan coated plate; wild-type pro-urokinase and pyro-Glu-Gly-Arg-pNA; 37° C., 2 h
Description: MBL-MASP complexes were captured on a mannan coated plate as described in example 4. After capture, buffer, pro-urokinase and peptide substrate and boroMpg (0-1 μM final concentration) in DMSO, or an equivalent amount of pure DMSO (control) were added and activity was measured. All details were as described in example 4. Activity was expressed as ΔA^405/h^2×1000.
A mannan coated plate was used to capture MBL-MASP complex from diluted human serum. After washing, 100 μl buffer containing 0-1 μM Z-D-Phe-Pro-methoxypropylboroglycine-pinanediolester (BMpg or boroMpg) or buffer containing an identical volume of DMSO (solvent of boroMpg), 15 μl (50 μg/ml) wild-type pro-urokinase and 10 μl (6 mM) pyro-Glu-Gly-Arg-pNA were added. The plate was incubated at 37° C. and colour formation was followed for 2 h with a plate reader at 405 nm. Activities were expressed as ΔA/h^2×1000. All details are as described in Example 4. The results summarized in FIG. 9 show no effect of BMpg on activity of the captured MBL-MASP complex.

MASP-1 = target: T1, MASP-1 (Homo sapiens, UniProt P48740); conditions: known from Presanis et al. Mol. Immunol. 2003; cited from earlier work
T1 sequence (P48740 20-699): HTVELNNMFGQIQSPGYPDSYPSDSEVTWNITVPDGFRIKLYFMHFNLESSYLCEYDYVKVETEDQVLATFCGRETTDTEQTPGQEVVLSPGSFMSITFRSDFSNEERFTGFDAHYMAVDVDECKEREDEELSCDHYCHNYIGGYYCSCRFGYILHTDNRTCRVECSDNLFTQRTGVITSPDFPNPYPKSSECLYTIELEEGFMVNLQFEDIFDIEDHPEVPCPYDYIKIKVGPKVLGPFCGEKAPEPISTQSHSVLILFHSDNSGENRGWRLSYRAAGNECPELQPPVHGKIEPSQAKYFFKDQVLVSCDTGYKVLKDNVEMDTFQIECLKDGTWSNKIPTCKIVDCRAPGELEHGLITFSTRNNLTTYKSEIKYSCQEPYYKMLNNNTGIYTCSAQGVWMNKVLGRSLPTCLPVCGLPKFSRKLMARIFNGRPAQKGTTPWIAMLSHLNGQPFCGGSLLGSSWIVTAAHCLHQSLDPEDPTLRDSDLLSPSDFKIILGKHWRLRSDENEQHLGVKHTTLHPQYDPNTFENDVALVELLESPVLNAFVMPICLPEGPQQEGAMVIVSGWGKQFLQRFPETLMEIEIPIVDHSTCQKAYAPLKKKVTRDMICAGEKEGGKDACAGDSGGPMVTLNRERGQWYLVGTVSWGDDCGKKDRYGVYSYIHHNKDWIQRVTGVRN

MASP-2 [1] = target: T2, MASP-2 (Homo sapiens, UniProt O00187); conditions: known from Presanis et al. Mol. Immunol. 2003; cited from earlier work
Target sequence in this assay (O00187 16-686): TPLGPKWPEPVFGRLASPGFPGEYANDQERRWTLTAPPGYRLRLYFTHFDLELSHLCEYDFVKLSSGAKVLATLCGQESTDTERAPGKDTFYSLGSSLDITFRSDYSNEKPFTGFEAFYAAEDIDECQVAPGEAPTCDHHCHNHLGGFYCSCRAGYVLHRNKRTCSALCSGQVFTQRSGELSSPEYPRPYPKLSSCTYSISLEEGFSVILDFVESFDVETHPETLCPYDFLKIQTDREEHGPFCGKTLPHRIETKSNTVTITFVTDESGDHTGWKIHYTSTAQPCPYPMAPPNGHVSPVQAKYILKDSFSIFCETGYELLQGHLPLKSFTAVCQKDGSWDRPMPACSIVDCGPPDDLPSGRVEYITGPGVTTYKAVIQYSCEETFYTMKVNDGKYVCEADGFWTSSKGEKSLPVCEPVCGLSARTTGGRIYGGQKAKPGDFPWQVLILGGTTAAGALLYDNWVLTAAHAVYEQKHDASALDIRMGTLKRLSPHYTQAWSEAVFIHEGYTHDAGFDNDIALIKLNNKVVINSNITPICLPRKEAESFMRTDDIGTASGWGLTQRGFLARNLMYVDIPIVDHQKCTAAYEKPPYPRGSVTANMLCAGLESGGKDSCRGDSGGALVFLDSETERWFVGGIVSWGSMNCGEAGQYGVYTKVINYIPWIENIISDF

MBL-MASP complexes = assay: Determination of MBL-MASP complexes in serum with pro-urokinase substrates; type: biochemical, human; conditions: serum diluted 10-320 fold, mannan coated plate
Description: A mannan-coated microtiter plate was used to bind and immobilize MBL-MASP complexes from heterozygous MBL-deficient serum (A/B genotype), homozygous MBL-deficient serum (B/B genotype) and normal serum (A/A genotype) in various dilutions. After washing, wild-type pro-urokinase or substrate 2 and chromogenic peptide pyro-Glu-Gly-Arg-pNA were added. The absorbance change at 405 nm was followed in time. The slopes of A405 versus time-squared graphs were taken as a measure of activity.
Based on the results of example 2 an assay for MBL-MASP complexes in serum was developed. Three different sera were used, serum […] MBL deficiency, serum (B/B) with an homozygous MBL deficiency and a normal serum (A/A). A microtiter plate was coated with mannan, washed and blocked as described in example 2.
Serum samples were diluted 10-320 fold in GVB++buffer (see example 2) and 100 μl of these dilutions were pipetted into wells of the coated microtiter plate. […]
To all wells 100 μl of detection buffer, 10 μl of either wild-type pro-urokinase or pro-urokinase derivative 2 at 7.6 μg/ml and 10 μl of pyro-Glu-Gly-Arg-pNA at 6 mM were added (see example 2). The plate was shaken and A^405 was followed in time with a microtiter plate reader. The slopes of the graphs of A^405 versus time squared were calculated and used as a measure of activity.

MASP-2 [2] = target: T2, MASP-2; assay: Activity of recombinant MASP-2 on novel substrates; type: biochemical; design: Recombinant MASP-2 (active form) at 600 μg/ml was serially diluted; conditions: serially diluted recombinant MASP-2, 37° C., 2 h, A405
Description: Various dilutions of purified recombinant MASP-2 were tested for their response with wild-type pro-urokinase based detection and substrate 2 (table 1) based detection. MASP-2 was diluted in buffer to which wt pro-urokinase or pro-urokinase derivative 2 was added followed by pyro-Glu-Gly-Arg-pNA. The plate was incubated for 2h and A^405 was measured (see example 5 for details).
The activity of purified recombinant MASP-2 on wt pro-urokinase and substrate 2 was investigated. Recombinant MASP-2 (active form) at 600 μg/ml was serially diluted in 50 mM Tris HCl pH7.6, 1.5 mM NaCl, 0.5 mM CaCl2, 1 μM ZnCl2, 0.01% (v/v) BRIJ35™. To wells of a microtiter plate 100 μl of MASP-2 dilution, 10 μof wt pro-urokinase at approximately 50 μg/ml) or 10 μl substrate 2 (at approximately 75 μg/ml) were added, followed by 10 μl of peptide substrate pyro Glu-Gly-Arg-pNA (at 6 mM). The plate was incubated at 37° C. and absorbance change at 405 nm was followed in time for 2 h.
Target sequence in this assay (O00187 16-444 limits assumed): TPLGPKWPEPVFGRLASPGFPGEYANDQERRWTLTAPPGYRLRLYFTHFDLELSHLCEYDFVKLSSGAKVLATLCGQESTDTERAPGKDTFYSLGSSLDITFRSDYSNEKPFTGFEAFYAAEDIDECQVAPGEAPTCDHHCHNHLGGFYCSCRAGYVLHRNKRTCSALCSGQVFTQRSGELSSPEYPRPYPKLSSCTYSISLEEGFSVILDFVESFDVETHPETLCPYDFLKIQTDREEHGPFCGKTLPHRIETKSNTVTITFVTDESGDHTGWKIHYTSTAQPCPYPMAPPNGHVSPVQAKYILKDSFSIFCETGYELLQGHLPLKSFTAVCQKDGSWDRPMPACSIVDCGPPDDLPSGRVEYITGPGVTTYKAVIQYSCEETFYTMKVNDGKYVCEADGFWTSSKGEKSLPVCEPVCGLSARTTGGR
Target sequence in this assay (O00187 445-686 limits assumed): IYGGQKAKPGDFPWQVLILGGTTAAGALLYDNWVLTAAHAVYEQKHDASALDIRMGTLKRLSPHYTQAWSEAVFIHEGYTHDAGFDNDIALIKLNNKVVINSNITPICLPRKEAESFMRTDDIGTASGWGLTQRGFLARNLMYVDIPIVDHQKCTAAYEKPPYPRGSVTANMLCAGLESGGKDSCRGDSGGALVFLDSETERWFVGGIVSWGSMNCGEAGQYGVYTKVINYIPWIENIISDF

Compound	effect on activity of the captured MBL-MASP complex (ΔA/h^2×1000) (MBL-MASP complex)	inhibition of MASP-1 (MASP-1)	inhibition of MASP-2 (MASP-2 [1])	activity in normal (A/A) serum (slope of A405 versus time squared) (MBL-MASP complexes)	detection of MASP-2 activity (MASP-2 [2])
COCCC[C@@H](NC(=O)[C@@H]1CCCN1C(=O)[C@@H](Cc1ccccc1)NC(=O)OCc1ccccc1)B1OC2C[C@@H]3C[C@@H](C3(C)C)[C@]2(C)O1 (stereo partly drawn) [BMpg, Z-D-Phe-Pro-methoxypropylboroglycine-pinanediolester]	no effect	inhibit MASP-1	not MASP-2		
substrate 2: pro-urokinase mutant with activation site Asn-Leu-Thr-Arg-Ile-Val-Gly-Gly (SEQ ID NO:4) (NLTRIVGG; activation site)				dose dependent activity	can be detected

— patent publication US7811771B2, “Method for the functional determination of mannan-binding-lectin associated serine proteases (MASPs) and complexes thereof” (Nederlandse Organisatie voor …, priority 2004, dated 2010)
